In EPA's ToxValDB 9.5:
Where “and” joins values, the source holds several entries; their conditions need not be identical. Equal values may be shown once.

What was measured:
Rattus norvegicus [1] = conditions: oral
Rattus norvegicus [2] = conditions: oral; remark: listed apart in the source
Rattus norvegicus [3] = conditions: oral, diet
Rattus norvegicus [4] = conditions: oral; remark: listed apart in the source
Canidae [5] = conditions: subchronic; oral; M/F; Dog Other; red blood cell and liver effects
Homo sapiens = conditions: clinical
Rattus norvegicus [6] = conditions: short-term
Rattus norvegicus [7] = conditions: oral; remark: listed apart in the source
Rattus norvegicus [8] = conditions: developmental; oral; diet; Fetus: Fetotoxicity
Canidae [9] = conditions: chronic; duration: 14 weeks; oral; diet; Beagle
Mus musculus = conditions: acute; oral
Rattus norvegicus [10] = conditions: Hershberger; duration: 10 days; oral; gavage; Sprague-Dawley; inactive + Negative + Negative + neither + negative
[11] = subchronic, duration: 90 days, diet, Sprague-Dawley
[12] = developmental, F, reduced delayed hypersensitivity response
[13] = chronic, diet, M/F, kidney toxicity
[14] = reproduction developmental, Long-Evans, Micromelia, ectromelia, curved femur and microfetalis
[15] = chronic, M/F, reduced body weight
[16] = chronic, duration: 2 years, diet, M/F, reduced body weight (males), inflammatory foci in kidneys of females

## Clc1cccc(Cl)c1Cl [1,2,3-Trichlorobenzene]
Rattus norvegicus [1]; developmental, duration: 10 days, gavage, Sprague-Dawley
  NOAEL: 600 mg/kg-day
Rattus norvegicus [1]; reproduction developmental, duration: 10 days, gavage, F, Sprague-Dawley
  NOAEL: 150 mg/kg-day
Rattus norvegicus [1]; [11]
  LOAEL: 96 mg/kg-day
  NOAEL: 9.6 mg/kg-day
Rattus norvegicus [2]; subchronic, duration: 13 weeks, diet, M, Sprague-Dawley, Whole Body Effects, Hepatic
  NOAEL: 7.7 mg/kg-day

## ClCCCCl [1,3-Dichloropropane]
Rattus norvegicus [2]; subchronic, duration: 90 days, gavage, M/F, Sprague-Dawley, Hepatic, Urinary
  NOAEL: 50 mg/kg-day

## Oc1ccc(Cl)cc1Cl [2,4-Dichlorophenol]
Rattus norvegicus [3]; subchronic, duration: 90 days, M/F, Fischer 344, Clinical Observation: Hunched posture Rough hair coats + Body Weight Changes: decrease + Food Consumption: decrease, (palatability decrease…
  NOAEL: 480 mg/kg-day
Rattus norvegicus [4]; [12]
  LOAEL: 3 mg/kg-day
  NOEL: 0.3 mg/kg-day
Rattus norvegicus [2]; subchronic, duration: 13 weeks, drinking water, M/F, Sprague-Dawley, Whole Body Effects
  LOAEL: 3 mg/kg-day

## C=Cc1ccccc1 [Styrene]
Canidae [5]
  LOAEL: 400 mg/kg-day
  NOAEL: 200 mg/kg-day
Homo sapiens; duration: 6 hours, inhalation, M, neurological
  NOAEL: 209 mg/m3
Rattus norvegicus [6]; duration: 14 days, oral, gavage, M, Wistar, neurological
  LOAEL: 100 mg/kg-day
Rattus norvegicus [7]; chronic, duration: 2 years, drinking water, M/F, Sprague-Dawley, Decreased bodyweight, females
  NOEL: 7.7 mg/kg-day and 14 mg/kg-day

## OCCO [Ethylene glycol]
Rattus norvegicus [3]; chronic, duration: 16 weeks, M, Wistar, Deaths + Body Weight Changes: Mean body weight decrease + Food Consumption: decrease + Water Consumption: increase + Urinalysis: SG decrease…
  NOAEL: 150 mg/kg-day
Rattus norvegicus [3]; chronic, duration: 16 weeks, M, Wistar, Water Consumption: increase + Urinalysis: SG decrease, VOL increase + Absolute Organ Weight: Kidney increase + Relative Organ Weight: Kidney…
  NOAEL: 150 mg/kg-day
Rattus norvegicus [4]; [13]
  LOAEL: 1000 mg/kg-day
  NOEL: 200 mg/kg-day
Homo sapiens; duration: 30 days, inhalation, M, respiratory
  NOAEL: 23 mg/m3
Rattus norvegicus [8]
  NOEL: 200 mg/kg-day

## CCCSc1ccc2nc(NC(=O)OC)[nH]c2c1 [Albendazole]
Rattus norvegicus [7]; [14]
  LOEL: 10 mg/kg-day
  NOEL: 5 mg/kg-day

## FC(F)(Cl)Cl [Dichlorodifluoromethane]
Rattus norvegicus [4]; [15]
  LOAEL: 150 mg/kg-day
  NOAEL: 15 mg/kg-day
Rattus norvegicus [2]; chronic, duration: 2 years, gavage, M/F, Crl:CD(SD), Whole Body Effects
  NOAEL: 15 mg/kg-day

## CC[C@@]1([C@@H]2O[C@@H]([C@H]3O[C@@](O)(CO)[C@H](C)C[C@@H]3C)C[C@@H]2C)CC[C@H]([C@]2(C)CC[C@]3(C[C@H](O)[C@@H](C)[C@@H]([C@@H](C)[C@@H](OC)[C@H](C)C(=O)O)O3)O2)O1 [Monensin]
Rattus norvegicus [7]; chronic, duration: 2 years, diet, M/F, Wistar, Decreased bodyweight gain
  NOAEL: 1.14 mg/kg-day

## F [Hydrogen fluoride]
Homo sapiens; duration: 1 hours, inhalation, M, respiratory
  LOAEL: 0.409 mg/m3

## [Cl][Sb]([Cl])[Cl] [Antimony trichloride]
Rattus norvegicus [2]; chronic, duration: 2 years, drinking water, M/F, Long-Evans, Whole Body Effects
  LOAEL: 0.35 mg/kg-day

## CCC(CC)C(C)COC(=O)c1ccccc1C(=O)OCC(C)C(CC)CC (stereo not drawn) [Di-C7-9-branched and linear alkyl phthalates]
Canidae [9]
  NOAEL: 100 mg/kg-day
Mus musculus
  LD50: > 26000 mg/kg
Rattus norvegicus [1]; acute
  LD50: > 22000 mg/kg
Rattus norvegicus [1]; reproduction developmental, diet, Sprague-Dawley, generation: F0
  NOAEL (% diet): 1
Rattus norvegicus [1]; reproduction developmental, diet, Sprague-Dawley, generation: F1
  NOAEL (% diet): 1
Rattus norvegicus [1]; short-term, duration: 4 weeks, diet
  NOAEL: 100 mg/kg-day

## CC1(C)C(C=C(Cl)Cl)C1C(=O)OC(C#N)c1ccc(F)c(Oc2ccccc2)c1 (stereo not drawn) [Cyfluthrin]
Rattus norvegicus [4]; [16]
  LEL: 7.5 mg/kg-day
  NOEL: 2.5 mg/kg-day
Rattus norvegicus [10]
  NOEL: 20 mg/kg-day
Rattus norvegicus [7]; chronic, duration: 2 years, diet, M/F, Wistar, Depressed bodyweight gain
  NOEL: 2 mg/kg-day
Rattus norvegicus [7]; dietary / carcinogenicity, duration: 2 years, feed, M/F, Wistar, Depressed bodyweight gain
  NOEL: 2 mg/kg-day

## [V] [Vanadium]
Homo sapiens; duration: 12 weeks, oral, capsule, M/F, hematological
  NOAEL: 0.12 mg/kg-day
Rattus norvegicus [6]; duration: 16 days, inhalation, F, Fischer 344, respiratory
  LOAEL: 0.56 mg/m3

## O=[N+]([O-])c1cc(C(F)(F)F)ccc1Cl [4-Chloro-3-nitrobenzotrifluoride]
Rattus norvegicus [2]; short-term, duration: 28 days, gavage, M, Sprague-Dawley
  LOAEL: 1 mg/kg-day
